pKi: −log10 of the molar value.
Molecular target: Growth hormone secretagogue receptor type 1 (Sus scrofa)
Assay: Binding Affinity against Growth hormone secretagogue receptor of swine using [35S]MK-0677 as radioligand

Row | pKi | Compound
1 | 7.20 | CC(C)(N)CC(=O)N[C@@H]1CCc2ccccc2N(Cc2ccc(-c3ccccc3-c3nnn[nH]3)cc2)C1=O [3-Amino-3-methyl-N-{2-oxo-1-[2'-(1H-tetrazol-5-yl)-biphenyl-4-ylmethyl]-2,3,4,5-tetrahydro-1H-benzo[b]azepin-3-yl}-butyramide]
2 | < 5.30 | CC(C)(N)CC(=O)N[C@H]1CCc2ccccc2N(Cc2ccc(-c3ccccc3-c3nnn[nH]3)cc2)C1=O [3-Amino-3-methyl-N-{(S)-2-oxo-1-[2'-(1H-tetrazol-5-yl)-biphenyl-4-ylmethyl]-2,3,4,5-tetrahydro-1H-benzo[b]azepin-3-yl}-butyramide]
